Here are results for five molecules from patent US9725675B2, “Lipid-soluble formulations containing mixtures of antioxidants” (KEMIN INDUSTRIES, INC., priority 2003, dated 2017).

Structures are written as SMILES. Where “and” joins values, the source holds several entries; their conditions need not be identical. Identical values can stand only once.

A short description of the data set: Oil Stability Index (OSI) induction time, AOCS Official Method Cd 12b-92, at 98° C. The settings on record: for OSI induction time (h) of formulations based on single antioxidants: 250 ppm of antioxidant formulation (20% active antioxidant in the carrier of Formulation 1), soybean oil, replicates 1-3; for OSI induction time of soybean oil stabilized with synthetic antioxidants: single antioxidants directly dissolved in soybean oil, 98° C., control 14.8 h.

From the text: In order to evaluate the oxidative stability of an oil or fat sample an accelerated method is developed to speed up the oxidation process. […] This method is particularly suited to evaluate the effect of antioxidant stabilization of oils and fats.
Before oils and fats start to oxidize a resistance has to be overcome, after which the oxidation accelerates and becomes very rapid. The length of time before this rapid acceleration of oxidation is a measure of the resistance to oxidation and is commonly referred to as the ‘induction period’. In the Oil Stability Index (OSI method) the oxidative stability and the effect of antioxidant stabilization of oils and fats is determined. A stream of purified air is passed through a sample of oil, which is held in a thermostatic bath. In this experimental test the OSI was carried out at a temperature of 98° C. The effluent air from the oil or fat sample is then bubbled through a vessel containing deionized water. The conductivity of the water is continually monitored. The effluent air contains the volatile organic acids formed upon oxidizing the oil. The Oil Stability Index is defined as the point of maximum change of the rate of oxidation, or mathematically as the second derivative of the conductivity curve. As a consequence the induction point is a measure for the oxidative stability of the oil or fat system. The higher the induction point the higher the oxidative stability of the oil.

As to `CCCOC(=O)c1cc(O)c(O)c(O)c1` [Propyl gallate, propyl gallate], the “OSI induction time (h) of formulations based on single antioxidants” value (“OSI induction time (h)” below) was 19.5 h and 21.5 h and 20.1 h. Moreover, where the note is “250 ppm”, the “OSI induction time of soybean oil stabilized with synthetic antioxidants” value (“OSI induction time … with synthetic antioxidants” below) is listed as 35.8 h. Also, the “OSI induction time … with synthetic antioxidants” value (500 ppm) came to 44.5 h. Also, the “OSI induction time … with synthetic antioxidants” value (1000 ppm) is listed as 53.1 h.

In the case of `COc1ccc(O)c(C(C)(C)C)c1` [BHA, butylated hydroxyanisole], the “OSI induction time (h)” value is 14.0 h and 14.2 h and 14.5 h. Also, the “OSI induction time … with synthetic antioxidants” value (250 ppm) is 14.0 h. For the same molecule, the “OSI induction time … with synthetic antioxidants” value (500 ppm) came to 15.5 h. The “OSI induction time … with synthetic antioxidants” value (1000 ppm) was determined as 21.5 h.

Regarding `CCCCCCCCOC(=O)c1cc(O)c(O)c(O)c1` [Octyl gallate, octyl gallate], the “OSI induction time (h)” value is 19.3 h (2×) and 19.5 h. In addition, the “OSI induction time … with synthetic antioxidants” value (250 ppm) was 29.6 h. Under “500 ppm”, the “OSI induction time … with synthetic antioxidants” value turned out to be 38.6 h. Further, the “OSI induction time … with synthetic antioxidants” value (1000 ppm) worked out at 47.6 h.

For `O=C(O)c1cc(O)c(O)c(O)c1` [Gallic acid, gallic acid], the “OSI induction time (h)” value is 21.6 h and 20.7 h and 22.0 h. Further, the “OSI induction time … with synthetic antioxidants” value (250 ppm) was 30.6 h. Moreover, under “500 ppm”, the “OSI induction time … with synthetic antioxidants” value was 41.8 h. In addition, for the setting “1000 ppm”, the “OSI induction time … with synthetic antioxidants” value is given as 47.4 h.

Take `Cc1cc(C(C)(C)C)c(O)c(C(C)(C)C)c1` [BHT, butylated hydroxyltoluene]: the “OSI induction time (h)” value is 15.5 h and 15.4 h and 15.0 h. Also, where the note is “250 ppm”, the “OSI induction time … with synthetic antioxidants” value came out at 17.9 h. In addition, where the note is “500 ppm”, the “OSI induction time … with synthetic antioxidants” value is reported as 20 h.
